Assay results: PubChem BioAssay (NCI)
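The compound was tested at five concentrations on cells cultured in 96-well plates, with a 48-hour exposure period. GI50 = concentration required for 50% inhibition of growth. TGI is the concentration that stops growth completely.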

Legend:
Assay in all cases: NCI tumour cell line growth inhibition, 48 h
KM12 colon = test system: KM12 colon
OVCAR-8 ovarian = test system: OVCAR-8 ovarian
U251 CNS = test system: U251 CNS
MCF7 breast = test system: MCF7 breast
SK-MEL-28 melanoma = test system: SK-MEL-28 melanoma
UACC-62 melanoma = test system: UACC-62 melanoma
786-0 renal = test system: 786-0 renal
SF-295 CNS = test system: SF-295 CNS

SMILES	GI50 (KM12 colon)	TGI (KM12 colon)	GI50 (OVCAR-8 ovarian)	TGI (OVCAR-8 ovarian)	GI50 (U251 CNS)	TGI (U251 CNS)	GI50 (MCF7 breast)	TGI (MCF7 breast)	GI50 (SK-MEL-28 melanoma)	TGI (SK-MEL-28 melanoma)	GI50 (UACC-62 melanoma)	TGI (UACC-62 melanoma)	GI50 (786-0 renal)	TGI (786-0 renal)	GI50 (SF-295 CNS)	TGI (SF-295 CNS)
O=C(/C=C/C12c3ccccc3C(c3ccccc31)C1C(=O)NC(=O)C12)c1ccc(Cl)cc1 (stereo unspecified)	2.14 µM	5.44 µM	1.13 µM	2.66 µM	1.52 µM	2.99 µM	1.34 µM	4.05 µM	1.8 µM	3.37 µM	1.4 µM	2.77 µM	1.73 µM	3.16 µM		
CCOC(=O)c1ccc2c(c1)[n+](=O)c(C(C)=O)c(C(F)(F)F)n2[O-]	1.47 µM	2.89 µM	2.42 µM	9.25 µM	1.48 µM	3.02 µM	1.24 µM	2.61 µM	2.87 µM	10.1 µM	1.49 µM	3.46 µM	1.67 µM	3.21 µM	1.37 µM	3.01 µM
CCOC(=O)c1cnn2c3ccccc3n(S(=O)(=O)c3ccc(OC)cc3)c12	0.196 µM	21.9 µM	0.551 µM	> 100 µM	0.377 µM	> 100 µM	0.0998 µM	> 100 µM	5.98 µM	> 100 µM	0.574 µM	> 100 µM	0.666 µM	> 100 µM	0.255 µM	
Nc1ccccc1C#C/C=C\C#Cc1c(F)c(F)c(F)c(F)c1F	16.2 µM	37.7 µM	17.1 µM	36.7 µM	13 µM	25.7 µM	24.6 µM	> 100 µM	17 µM	38.4 µM	12.5 µM	26 µM	12.3 µM	30.5 µM	20.3 µM	46.6 µM
O=C1c2ccccc2C(=O)c2c(NCC3CO3)ccc(NCC3CO3)c21 (stereo unspecified)		19.4 µM		2.49 µM		8.38 µM		1.25 µM		28.1 µM				5.57 µM		23.7 µM
COc1cccc(C2C3=C(COC3=O)N(CCO)c3cc4c(cc32)OCO4)c1 (stereo unspecified)	0.192 µM		1.19 µM	> 50 µM	0.269 µM	> 50 µM	0.185 µM	> 50 µM	> 50 µM	> 50 µM		> 50 µM	0.37 µM	> 50 µM	0.157 µM	
CCN1C[C@]2(COC)[C@H](O)C[C@H](OC)[C@]34C1[C@H]([C@H](OC)[C@H]23)[C@]1(OC(C)=O)[C@H]2[C@@H](OC(=O)c3ccccc3)[C@](O)(C[C@H]24)[C@@H](OC)[C@@H]1O		> 100 µM		> 100 µM		> 100 µM		> 100 µM		> 100 µM		> 100 µM		> 100 µM		> 100 µM
Cc1ccc(-c2nc([P+](c3ccccc3)(c3ccccc3)c3ccccc3)c(Nc3ccccc3)o2)cc1	0.519 µM	1.83 µM	1.05 µM	3.27 µM	0.585 µM	2.14 µM	0.346 µM	1.43 µM	1.22 µM	2.52 µM	0.63 µM	1.93 µM	1.18 µM	2.57 µM	1.14 µM	2.41 µM
Cc1ccc(NCCN(C)C)c2c(=O)c3ccccc3sc12	1.66 µM	3.1 µM	3.16 µM	12.4 µM	1.83 µM	3.82 µM	1.47 µM	2.95 µM	1.71 µM	3.11 µM	1.69 µM	3.29 µM	1.58 µM	3.54 µM	1.88 µM	4.46 µM
Cc1c(C(N)=O)sc2c1c(=O)n(Cc1ccccc1)c1nnc(-c3ccc(Br)cc3)n21	3.31 µM	17.9 µM	2.21 µM	15 µM	1.56 µM	13 µM	3.4 µM	14.6 µM	4.09 µM	17.1 µM	1.78 µM	8.46 µM	2.09 µM	5.73 µM	1.01 µM	11.8 µM
NNC(=O)c1ccc(OCc2nc3ccccc3[nH]2)cc1		> 100 µM		> 100 µM		> 100 µM		> 100 µM		> 100 µM		> 100 µM		> 100 µM		> 100 µM
CC1=C(C)C2(O)C(=C(C)C1=O)/C(=C(/O)c1ccccc1)c1nc3ccccc3n12 (stereo unspecified)	17.6 µM	37.6 µM	18 µM	41 µM	22.1 µM	58.2 µM			20.6 µM	49.4 µM			29.5 µM	83.9 µM	15.5 µM	33.2 µM
COc1ccc(C2C=C(c3ccc(Cl)cc3)N=C3SC=C(C)N32)c(Br)c1 (stereo unspecified)	2.26 µM	5.77 µM	3.32 µM	50.7 µM	3.34 µM	13.1 µM	2.32 µM	12.5 µM	5.11 µM	17.4 µM	3.8 µM	15.7 µM	3.57 µM	25.4 µM		
